Reference: patent US12180084B2, “Cerium (III) carbonate formulations” (THE REGENTS OF THE UNIVERSITY OF CALIFORNIA, priority 2019, dated 2024)

How the values were obtained:
[1] = MB dye photodegradation in ZnO-based sunscreen film (Neutrogena Sheer Zinc Face Mineral Sunscreen SPF 50)
Method: A commercial ZnO-based sunscreen (Neutrogena Sheer Zinc Face™ Mineral Sunscreen SPF 50 consisting of 21.6% of ZnO solid as the only listed active ingredient) was mixed with Methylene Blue (MB) organic dye as follows. In a plastic cup, (10 g capacity; obtained from Flacktek Inc. USA), sunscreen (3 g; Neutrogena Sheer Zinc Face™ Mineral Sunscreen SPF 50) and an aqueous solution of 10^−3 M MB dye (0.6 mL) was mixed with a spatula for 3 minutes. Immediately afterwards, the mixture was high sheared in a Flactek high-speed mixer at 3500 rpm for 3 min. […] These wet drawn down coupons were treated with UV radiation in a photoreactor, without drying, for varying times and were subsequently directly extracted. The extraction employed ethanol solvent to remove MB dye and permit its quantification prior/post UV radiation exposure, so as to determine the extent of MB dye degradation by subtraction. Specifically, to accomplish this, two small strips (100 mg of each) were cut from the wet drawn-down coupons with a scissor/sharp blade so as to not smudge the film of applied sunscreen, and these strips were subsequently exposed to UV radiation in a photoreactor. The photoreactor was equipped with 14 UV-lamps of 254 nm wavelength and delivering a power of 145-155 lux for 4 h. The relative humidity during UV-exposure was controlled to be 100% by placing a water-filled Petri dish (200 mL capacity) in the photoreactor chamber for at least 16 h prior to start of photocatalysis experiment. […] This resulting clear ethanol solution of MB dye was used for measurement of the MB dye concentration UV-visible spectrophotometry, using the absorbance maximum at 654 nm. A control experiment was similarly performed to quantify amount of MB dye from sunscreen films which never underwent UV-radiation exposure (t=0 time point). […] The extent of dye photodegradation was determined by calculating the percentage of decrease in the absorbance intensity of dye at the wavelength of maximum absorption. […]

[2] = CR dye photodegradation in ZnO-based sunscreen film (Neutrogena Sheer Zinc Face Mineral Sunscreen SPF 50); conditions: 1.5 wt. % added agent relative to sunscreen weight
Method: Therefore, the extent of photodegradation upon UV irradiation in a photoreactor, using the same setup and ZnO-based sunscreen formulation (Neutrogena Sheer Zinc Face™ Mineral Sunscreen SPF 50) as in Examples 7.1 and 7.2 above, except now using Congo Red (CR) rather than MB dye was investigated. For this investigation, a homogeneous composite mixture was prepared by mixing the ZnO-based (Neutrogena Sheer Zinc Face™ Mineral Sunscreen SPF 50) sunscreen, and CR dye in the similar way as described in Example 7.1 for MB, except now using 10^−3 M CR dye (0.6 mL) instead of 10^−3 M MB dye (0.6 mL). Similarly, a composite sunscreen mixture comprising UV-protecting agent was prepared with synthesized Ce2(CO3)3·6H2O (1.5 wt. % relative to sunscreen weight), following the procedure of Example 7.2. The investigation of CR dye photodegradation in sunscreen films, was also conducted in similar fashion as described in Examples 7.1 for the case of no added UV-protecting agent and 7.2 for the case of added Ce2(CO3)3·6H2O UV-protecting agent, except for the following changes. First, the CR sunscreen films were salmon colored on the same filter paper, and the duration of UV-irradiation in the photoreactor was 5 h instead of 4 h. Second, 2 mL of N,N-dimethylformamide was used for CR dye extraction, instead of 2 mL of ethanol as used for MB dye extraction. […]

[3] = MB dye photodegradation in octacrylene-based sunscreen film (Blue Lizard Kids Australian Sunscreen SPF 30+); conditions: 1.5 wt. % added agent
Method: Films on filter paper were fabricated and photoreactor experiments were conducted exactly the same way as described in Example 7.2, using MB dye, except UV irradiation in the photoreactor was conducted for a period of 4 h. These films contained either no UV-protecting agent, or 1.5 wt. % of Ce2(CO3)3·6H2O that was synthesized according to Example 3. The slurry formulation for film fabrication, photoexposure to UV light, and MB dye extraction in ethanol were performed similar to Example 7.2, except Blue Lizard® Kids Australian Sunscreen SPF 30+ was used.
A 30 nm blue-shift of the wavelength of the absorbance maximum was observed (from 654 nm initially to 624 nm after 4 h of UV irradiation in the photoreactor). The degree of photodegradation was calculated by UV-visible spectrophotometry, by assuming the same extinction coefficient at 654 nm before UV irradiation and 624 nm after 4 h of UV irradiation in the photoreactor. Data in FIG. 25A corresponds to 64% MB dye photodegradation.

RBL-2H3 rat-cell line = experiment: Toxicity of mammalian cells to cerium carbonate, microscopy imaging; type: cell-based; conditions: 10 microliter of 1 mg in 1 mL water dispersion, imaging 20 min after addition
Method: A RBL-2H3 rat-cell line was used from the Berkeley cell-culture facility. […] Prior to microscopy imaging, cells were stored under 5% CO2 in air atmosphere at 37° C. A 10 microliter aliquot of an aqueous dispersion comprising 1 mg of cerium carbonate Ce2(CO3)3·6H2O (micron sized) in 1 mL of deionized water was added to the RBL-2H3 cells in the Petri dish. Microscopy imaging of the cells was performed before and 20 min after addition of the cerium carbonate. […] This viability of the cells appears to be similar both before and after treatment with cerium carbonate Ce2(CO3)3·6H2O (micron sized).

% of MB dye photodegradation after 4 h of UV irradiation in photoreactor ([1]; 0.5 wt. % added agent relative to sunscreen weight): 36%±2
% of MB dye photodegradation after 4 h of UV irradiation in photoreactor ([1]; 0.5 wt. % added agent relative to sunscreen weight, listed as Ce2(CO3)3•6H2O synthesized according to Example 3): 36 ± 2%
% of MB dye photodegradation after 4 h of UV irradiation in photoreactor ([1]; 1.5 wt. % added agent relative to sunscreen weight): 25%±2
% of CR dye photodegradation after 5 h of UV irradiation in photoreactor [2]: 9±1%
% of CR dye photodegradation after 5 h of UV irradiation in photoreactor ([2]; listed as Ce2(CO3)3•6H2O synthesized according to Example 3): 9 ± 1%
MB dye degradation after 4 h of UV irradiation in photoreactor [3]: 45%
Compound: O.O.O.O.O.O.O=C([O-])[O-].O=C([O-])[O-].O=C([O-])[O-].[Ce+3].[Ce+3] [Ce2(CO3)3·6H2O]
toxicity to cells (cell shape, viability) (RBL-2H3 rat-cell line): generally non-toxic to the cells
